Source: PMC11022729 (Advanced Science, 2024)
Where a name gives a salt, the structure may show the parent alone.

Experiments:
[1] = target: T1, human Slack (Homo sapiens, UniProt Q5JUK3); experiment: FluxOR potassium ion channel assay in HEK-Slack cells; assay type: cell-based; conditions: for EC50: HEK-Slack cells, Na+-free assay buffer, mean (95% confidence interval)
T1 construct: host or cells: HEK293
T1 sequence (Q5JUK3 1-1230): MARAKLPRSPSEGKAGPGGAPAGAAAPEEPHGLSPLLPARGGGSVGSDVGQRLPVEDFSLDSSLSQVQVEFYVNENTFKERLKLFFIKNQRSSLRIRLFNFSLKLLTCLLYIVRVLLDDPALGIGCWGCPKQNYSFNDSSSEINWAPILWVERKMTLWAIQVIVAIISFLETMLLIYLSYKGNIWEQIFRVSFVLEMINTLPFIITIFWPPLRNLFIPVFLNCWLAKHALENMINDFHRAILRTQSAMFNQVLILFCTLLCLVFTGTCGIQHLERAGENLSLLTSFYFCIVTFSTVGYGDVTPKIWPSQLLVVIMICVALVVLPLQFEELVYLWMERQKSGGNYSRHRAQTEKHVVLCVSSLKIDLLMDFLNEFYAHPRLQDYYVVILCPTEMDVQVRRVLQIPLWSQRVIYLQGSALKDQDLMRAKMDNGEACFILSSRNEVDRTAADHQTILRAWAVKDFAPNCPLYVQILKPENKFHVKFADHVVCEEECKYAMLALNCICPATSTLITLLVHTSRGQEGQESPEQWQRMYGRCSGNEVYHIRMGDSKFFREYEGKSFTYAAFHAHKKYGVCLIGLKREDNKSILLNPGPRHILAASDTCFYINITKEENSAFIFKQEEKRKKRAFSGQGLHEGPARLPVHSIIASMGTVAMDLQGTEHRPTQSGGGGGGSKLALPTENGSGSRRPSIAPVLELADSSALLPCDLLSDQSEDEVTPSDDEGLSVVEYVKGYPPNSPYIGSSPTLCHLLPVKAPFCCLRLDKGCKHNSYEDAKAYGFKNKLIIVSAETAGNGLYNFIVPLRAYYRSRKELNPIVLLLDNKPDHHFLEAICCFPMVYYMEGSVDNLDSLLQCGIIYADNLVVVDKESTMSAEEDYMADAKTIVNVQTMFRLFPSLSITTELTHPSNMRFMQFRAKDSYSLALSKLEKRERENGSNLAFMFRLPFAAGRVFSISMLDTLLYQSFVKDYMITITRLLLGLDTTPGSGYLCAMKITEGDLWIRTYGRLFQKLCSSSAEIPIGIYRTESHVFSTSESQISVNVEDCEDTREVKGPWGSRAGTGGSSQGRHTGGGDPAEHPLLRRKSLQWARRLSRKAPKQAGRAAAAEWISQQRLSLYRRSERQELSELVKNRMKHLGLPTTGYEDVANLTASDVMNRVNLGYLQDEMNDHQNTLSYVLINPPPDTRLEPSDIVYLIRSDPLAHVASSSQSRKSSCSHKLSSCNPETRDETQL
Protocol: The functional activity of this series of compounds against human Slack was determined using a cell‐based FluxOR potassium ion channel assay in cultured HEK293 cells stably expressing human Slack (herein referred to as HEK‐Slack cells) and a Na^+‐free assay buffer to prevent compound‐independent Slack activation by monovalent cations.^[ [14], [24] ^] […] Of the 114 newly synthesized compounds, 31 acted as Slack activators to varying extents. Accordingly, we deemed eight of these as the most interesting candidates.
To determine the Slack‐activating efficacy and potency of the novel compounds, a commercial FluxOR potassium ion channel assay (#10 017; Invitrogen) was used. HEK‐Slack cells were plated at a density of 50 000 cells per well on a poly‐D‐lysine coated (75 µg mL^−1, Sigma–Aldrich) 96‐well, black‐walled microplate with clear bottom (#655 090; Greiner Bio‐One) in DMEM (100 µL per well) containing 10% FBS and 1% penicillin/streptomycin 24 h prior to assaying. In the initial experiments shown in Figure S3A–F (Supporting Information), HEK‐Slack cells were plated at a density of 100 000 cells/well 48 h prior to the assay. On the day of the experiment, the cells were loaded with FluxOR dye according to the manufacturer's protocol. A Na^+‐free assay buffer, adjusted to pH 7.4 with KOH, containing 140 mM choline chloride, 5 mM KCl, 2 mM CaCl2, 2 mM MgSO4, 10 mM HEPES, and 5.55 mM glucose was used. To reduce background fluorescence, all assay components were complemented with a 10% BackDrop Background Suppressor (#B10511; Invitrogen).
All compounds were prepared as a 333 mM stock in DMSO and diluted on the experimental day to a final concentration of 100, 50, 25, 12.5, 6.25, 3.125, or 1.5625 µM in an assay buffer with DMSO adjusted to 0.03%. Before treatment, the cells were washed, and the medium was exchanged for the assay buffer. In a total volume of 90 µL per well, the cells were then incubated for 30 min at 37 °C with compounds at the indicated concentrations, or 0.03% DMSO alone as the vehicle. […] Fluorescence was measured using an Infinite M200 microplate reader (Tecan) with excitation at 485 nm (9 nm bandwidth) and emission at 525 nm (20 nm bandwidth) in the bottom read mode. First, the baseline fluorescence of the individual wells was established. Thereafter cells were stimulated with 20 µL Tl2SO4 (5 mM) solution injected at 100 µL s^−1, and fluorescence was further recorded for 100 s. Assays were run in triplicate. For all time points, the ratio of fluorescence to baseline fluorescence was calculated first for individual wells, and the average was then used.
Dose‐response curves comprising six concentrations were obtained in triplets using fluorescence/fluorescenceBaseline ratios at the 100th s.

[2] = target: T2, human D3 receptor (Homo sapiens, UniProt P35462); experiment: [3H]-spiperone competition binding assay, D3; conditions: mean [CI 95%]
T2 construct: expressed in transfected cells; host or cells: CHO
T2 sequence (P35462 whole entry): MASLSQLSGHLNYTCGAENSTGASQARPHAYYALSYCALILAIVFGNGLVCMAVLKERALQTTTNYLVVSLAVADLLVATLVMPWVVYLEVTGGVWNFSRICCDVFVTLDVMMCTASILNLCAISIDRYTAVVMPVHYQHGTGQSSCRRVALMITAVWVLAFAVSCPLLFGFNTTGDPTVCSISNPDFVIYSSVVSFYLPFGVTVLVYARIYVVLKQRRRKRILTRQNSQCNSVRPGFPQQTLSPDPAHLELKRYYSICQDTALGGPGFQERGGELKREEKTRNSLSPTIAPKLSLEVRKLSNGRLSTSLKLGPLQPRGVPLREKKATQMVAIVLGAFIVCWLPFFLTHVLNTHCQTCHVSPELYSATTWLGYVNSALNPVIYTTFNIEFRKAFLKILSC
Protocol: (§1) CHO cells stably expressing human dopamine D2short (D2R) and D3 receptor (D3R) were washed and harvested using PBS. […] The cell membrane homogenate was centrifuged (20 000 × g, 20 min, 4 °C), and the resulting cell pellet was resuspended in the binding buffer. Crude membrane extracts were kept at −80 °C until use. Before starting the experiments, cell membranes were thawed, homogenized by sonication (3 × 10 s), and stored in an ice‐cold binding buffer. […] Assays were performed at least in triplicate with appropriate concentrations ranging from 0.01 nM to 100 µM of the test compound. Non‐specific binding was determined using 10 µM haloperidol. By filtering through GF/B filters pretreated with 0.3% (m/v) polyethyleneimine, the bound radioligand was separated from free radioligand using a cell harvester. Radioactivity was measured using liquid scintillation counting. Data were evaluated using the GraphPad Prism 9 software (San Diego, CA, USA) with a nonlinear regression fit.

[3] = target: T3, human D2S receptor (Homo sapiens, UniProt P14416); experiment: [3H]-spiperone competition binding assay, D2; conditions: mean [CI 95%]
T3 construct: expressed in transfected cells; host or cells: CHO
T3 sequence (P14416 1-414 isoform P14416-2): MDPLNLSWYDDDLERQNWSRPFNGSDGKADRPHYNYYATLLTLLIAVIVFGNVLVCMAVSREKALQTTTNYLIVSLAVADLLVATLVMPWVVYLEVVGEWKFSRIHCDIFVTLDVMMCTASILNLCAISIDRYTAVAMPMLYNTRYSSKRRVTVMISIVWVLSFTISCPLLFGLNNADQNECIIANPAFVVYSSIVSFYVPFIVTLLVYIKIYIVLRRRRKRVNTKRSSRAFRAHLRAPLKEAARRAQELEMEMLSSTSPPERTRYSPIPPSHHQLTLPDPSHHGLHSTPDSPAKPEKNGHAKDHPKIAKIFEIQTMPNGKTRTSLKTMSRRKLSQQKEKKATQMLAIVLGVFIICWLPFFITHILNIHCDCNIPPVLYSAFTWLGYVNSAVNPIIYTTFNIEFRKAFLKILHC
Protocol: as §1

[4] = system: HEK293 cells; experiment: Live-cell high-content cytotoxicity multiplex assay; assay type: cell-based; conditions: 100 µM, 6 h
Protocol: To explore whether the compounds affected general cell functions, we performed a live‐cell high‐content assay that allowed for the simultaneous investigation of cellular viability, compound precipitation, and maintenance of membrane integrity and mitochondrial mass.^[ [25] ^]
To assess cell viability, a live cell high‐content screen was performed in HEK293T cells as described previously.^[ [25] ^] In brief, HEK293T cells (ATCC CRL‐1573) were cultured in DMEM plus L‐glutamine (high glucose) supplemented by 10% FBS (Gibco) and penicillin/streptomycin (Gibco). Cells were seeded at a density of 1500 cells/well in 384 well plates in culture medium (cell culture microplate, PS, f‐bottom, µClear, 781 091; Greiner). Cells were stained simultaneously with 60 nM Hoechst33342 (Thermo Scientific), 75 nM Mitotracker red (Invitrogen), 0.3 µL per well annexin V Alexa Fluor 680 conjugate (Invitrogen), and 25 nL per well BioTracker 488 green microtubule cytoskeleton dye (EMD Millipore). The fluorescence and cellular shape were measured after 6 h of compound exposure using a CQ1 high‐content confocal microscope (Yokogawa). […] Images were analyzed using the CellPathfinder software (Yokogawa). Cells were detected and gated in different cell populations as described previously^[ [47] ^] using a machine learning‐based algorithm. Briefly, compound precipitation was detected as Hoechst high‐intensity objects. […]

[5] = system: mice; experiment: Pulse oximetry in conscious, freely moving mice; conditions: 10 mg kg−1 i.p., observation period of 30 min
Protocol: To measure cardiovascular function, a pulse oximeter (MouseOX Plus, Starr Life Sciences Corp.) was used in conscious, freely moving mice. After three consecutive days of habituating the mice to the collar clip for at least 30 min, baseline measurements were performed. […] All the datasets were sampled at 1 Hz, error‐corrected according to the manufacturer's instructions, and averaged over 300 s for each time point.

[6] = Metabolic stability assay in rat liver microsomes; assay type: in vitro ADME; conditions: 10 µM, 15, 30 and 60 min
Protocol: We next assessed the metabolic stability of these compounds (10 µM) in rat liver microsomes (Figure 2A). […] Therefore, we assumed that the occupation of metabolically labile sites at the aromatic core and the reduction in electron density at the oxidizable nitrogen atom of the piperazine ring might increase metabolic stability. Indeed, both the introduction of fluorine at R^2 and the introduction of an electron‐withdrawing carboxylic acid linker at R^3 improved metabolic stability. The substitution of chlorine with a trifluoromethyl group at R^1 was also beneficial. In contrast, homopiperazine and hydroxy linkers were metabolically labile.
The solubilized test compound (5 µL, final concentration 10 µM) was preincubated at 37 °C in 432 µL phosphate buffer (0.1 M, pH 7.4) together with 50 µL NADPH regenerating system (30 mM glucose‐6‐phosphate, 4 U mL^−1 glucose 6‐phosphate dehydrogenase, 10 mM NADP, and 30 mM MgCl2). After 5 min, the reaction started upon the addition of 13 µL of microsome mix from the liver of Sprague‐Dawley rats (Invitrogen; 20 mg protein per mL in 0.1 M phosphate buffer) in a shaking water bath at 37 °C. The reaction was stopped by adding 500 µL ice‐cold methanol at 0, 15, 30, and 60 min. The samples were centrifuged at 5000 × g for 5 min at 4 °C and the test compound was quantified from the supernatants by HPLC; the composition of the mobile phase was adapted to the test compound in a range of MeOH 40−90% and water (0.1% formic acid) 10−60%. Flow rate: 1 mL min^−1; stationary phase: Purospher STAR, RP18, 5 µm, 125 × 4; precolumn: Purospher STAR, RP18, 5 µm, 4 × 4; detection wavelength: 254 and 280 nm; injection volume: 50 µL. Control samples were used to evaluate the stability of the test compounds in the reaction mixture. The first control was without NADPH, which is needed for the enzymatic activity of the microsomes, the second control was with inactivated microsomes (incubated for 20 min at 90 °C), and the third control was without the test compound (to determine the baseline). The amounts of test compounds were quantified using an external calibration curve.

Row | Structure (SMILES) | Emax [1] [%] | EC50 [1] [nM] | Ki [2] [nM] | Ki [3] [nM] | compound precipitation [4] | breath rate [5] | heart rate [5] | metabolic stability [6]
1 | O=C(O)COCCN1CCCN(C2=Nc3ccccc3Oc3ccc(C(F)(F)F)cc32)CC1 [Compound 8] | 186 | 50900 | 421 | 134 |  |  |  | 
2 | CN1CCN(C2=Nc3ccccc3Oc3ccc(C(F)(F)F)cc32)CC1 [Compound 1] | 114 | 6300 | 12.2 | 3.6 | compound precipitation was only detected |  |  | 
3 | OCCOCCN1CCN(C2=Nc3ccccc3Sc3ccc(Cl)cc32)CC1 [Compound 5] | 87.4 | 30000 | 63.4 | 44.9 |  |  |  | 
4 | OCCN1CCN(C2=Nc3ccccc3Oc3ccc(Cl)cc32)CC1 [Compound 4] | 223 | 26000 | 176 | 50 |  |  |  | 
5 | CN1CCN(C2=Nc3cc(F)ccc3Oc3ccc(C(F)(F)F)cc32)CC1 [Compound 3] | 199 | 41500 | 22.6 | 2.89 |  |  |  | 
6 | CN1CC[C@]23c4c5ccc(O)c4O[C@H]2[C@@H](O)C=C[C@H]3[C@H]1C5 [morphine, morphine sulfate pentahydrate, reference compound] |  |  |  |  |  | reduced | reduced | 
7 | CN1CCCN(C2=Nc3ccccc3Oc3ccc(C(F)(F)F)cc32)CC1 [Compound 2] | 63.1 | 3200 | 62.4 | 82.8 |  |  |  | 
8 | O=C(O)COCCN1CCN(C2=Nc3ccccc3Oc3ccc(C(F)(F)F)cc32)CC1 [Compound 7] | 177 | 62500 | 40.7 | 27.4 |  |  |  | highest metabolic stabilities
